Laboratory results published in PubChem BioAssay (NCI).
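A five-concentration, 48-hour dose response in 96-well plates underlies each endpoint, interpolated linearly between surrounding concentrations. GI50 = concentration required for 50% inhibition of growth. TGI: total growth inhibition.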

Tests used:
Experiment in all cases: inhibition of tumour cell growth, NCI panel, 48 h
[1] = system: A498 renal
[2] = system: OVCAR-5 ovarian
[3] = system: OVCAR-8 ovarian
[4] = system: SF-268 CNS
[5] = system: MCF7 breast
[6] = system: A549 NSCLC
[7] = system: NCI-H460 lung
[8] = system: SK-MEL-2 melanoma
[9] = system: SF-295 CNS
[10] = system: ACHN renal

Structure (SMILES) | GI50 [1] | TGI [1] | GI50 [2] | TGI [2] | GI50 [3] | TGI [3] | GI50 [4] | TGI [4] | GI50 [5] | TGI [5] | GI50 [6] | TGI [6] | GI50 [7] | TGI [7] | GI50 [8] | TGI [8] | GI50 [9] | TGI [9] | GI50 [10] | TGI [10]
C[C@@H](Oc1cc(-n2cnc3ccc(OC[C@@H](O)CO)cc32)sc1C(N)=O)c1ccccc1Cl | 0.148 µM | 1.2 µM | 0.414 µM | > 25 µM | 0.109 µM | > 25 µM | 0.164 µM | > 25 µM | 0.025 µM | > 25 µM | 0.889 µM | > 25 µM | 0.227 µM | > 25 µM | 4.76 µM | 11.1 µM | 0.318 µM | > 25 µM | 6.11 µM | > 25 µM
O=[N+]([O-])c1cc2c([N+](=O)[O-])cccc2o1 | – | 43.5 µM | – | – | – | 38.8 µM | – | 31.1 µM | – | 13.8 µM | – | > 100 µM | – | > 100 µM | – | 25.4 µM | – | 42.4 µM | – | 10.6 µM
CCOC(=O)CNc1nnnn1C1OC(CO)C(O)C1O (configuration not stated) | – | > 100 µM | – | > 100 µM | – | > 100 µM | – | > 100 µM | – | – | – | > 100 µM | – | > 100 µM | – | > 100 µM | – | > 100 µM | – | > 100 µM
C=C(CCCO)[C@@H]1CC[C@@](C)(O)[C@H]1C | – | – | – | > 100 µM | – | > 100 µM | – | – | – | – | – | > 100 µM | – | > 100 µM | – | > 100 µM | – | > 100 µM | – | > 100 µM
COc1cc(/C=C2\C[C@H]3[C@@H]4CC=C5C[C@@H](OC(C)=O)CC[C@]5(C)[C@H]4CC[C@]3(C)[C@H]2OC(C)=O)ccc1OCCN1CCCC1 | – | – | 10 µM | 20.1 µM | 10.3 µM | 21.4 µM | 8.94 µM | 18.8 µM | 11.1 µM | 29.6 µM | 10.9 µM | 21.6 µM | 10.2 µM | 23.1 µM | 20.2 µM | > 50 µM | 12.6 µM | 25.4 µM | – | –
O=c1c(Cl)cc2nc3ccccc3sc-2c1Cl | – | 80.7 µM | – | 78.9 µM | – | – | – | 28.5 µM | – | 32.4 µM | – | 40.9 µM | – | 35.1 µM | – | 27.1 µM | – | 34.4 µM | – | 30.2 µM
CCN(CC)CCNc1ccc2nc(C)n3c4ccc(O)cc4c(=O)c1c23 | – | 13.3 µM | – | 8.1 µM | – | 3.23 µM | – | 12 µM | – | – | – | 1.25 µM | – | 1.83 µM | – | 20.3 µM | – | 9.81 µM | – | 3.78 µM
Cc1ccc2nc(NC(=O)/C(=N\NC(=S)NN)C3C(=O)NC(=S)NC3=O)sc2c1 | – | > 100 µM | – | > 100 µM | – | > 100 µM | – | > 100 µM | – | – | – | > 100 µM | – | > 100 µM | – | > 100 µM | – | > 100 µM | – | > 100 µM
CC1(C)N=C(N)N=C(N)N1c1cccc(Br)c1 | 15.9 µM | > 100 µM | – | – | 0.228 µM | > 100 µM | 0.0541 µM | > 100 µM | 0.665 µM | > 100 µM | 0.469 µM | > 100 µM | 0.435 µM | > 100 µM | > 100 µM | > 100 µM | 0.642 µM | > 38 µM | 0.786 µM | > 100 µM
COC[C@H](C)N=CN1CCc2ccccc2C1(Cc1ccccc1)Cc1ccccc1 | – | – | – | – | – | 28.8 µM | – | 45.9 µM | – | – | – | > 100 µM | – | 25.9 µM | – | 23.6 µM | – | 28.3 µM | – | 59.8 µM
[CH3][Sn]([CH3])([CH3])[O][N+](=O)[O-] | – | – | 6.73 µM | > 10 µM | 3.6 µM | > 10 µM | 3.63 µM | > 10 µM | 2.87 µM | > 10 µM | > 10 µM | > 10 µM | 8.25 µM | > 10 µM | 5.1 µM | > 10 µM | 9.92 µM | > 10 µM | > 10 µM | > 10 µM
Cn1cnc([N+](=O)[O-])c1Sc1nccc(=O)[nH]1 | – | > 100 µM | – | > 100 µM | – | > 100 µM | – | > 100 µM | – | – | – | > 100 µM | – | > 100 µM | – | > 100 µM | – | > 100 µM | – | > 100 µM
Cc1ccc(NC(=O)OCC(COc2ccc(Cl)cc2Cl)OC(=O)Nc2ccc(C)cc2)cc1 (configuration not stated) | – | > 100 µM | – | > 100 µM | – | 39.3 µM | – | > 100 µM | – | – | – | > 100 µM | – | > 100 µM | – | > 100 µM | – | > 100 µM | – | > 100 µM
CCN(CC)CCn1c2ccccc2c(=O)c2c(OC)ccc(OC)c21 | – | > 100 µM | – | > 100 µM | – | > 100 µM | – | > 100 µM | – | – | – | > 100 µM | – | > 100 µM | – | > 100 µM | – | > 100 µM | – | > 100 µM
C=CCN(N=O)C(=O)NCCCCC(NC(C)=O)C(=O)NCc1ccccc1 (configuration not stated) | – | > 100 µM | – | > 100 µM | – | > 100 µM | – | > 100 µM | – | – | – | > 100 µM | – | > 100 µM | – | > 100 µM | – | > 100 µM | – | > 100 µM
CC1C2CC=CC(=O)[C@@]2(C)CCC12OCCO2 (some centres not stated) | – | > 100 µM | – | > 100 µM | – | > 100 µM | – | > 100 µM | – | – | – | > 100 µM | – | > 100 µM | – | > 100 µM | – | > 100 µM | – | > 100 µM
COc1ccc2c(c1OC(C)=O)C1=CC(=O)CCC13CCNC3C2 (configuration not stated) | – | – | – | > 100 µM | – | > 100 µM | – | > 100 µM | – | > 100 µM | – | > 100 µM | – | > 100 µM | – | > 100 µM | – | > 100 µM | – | > 100 µM
COc1ccc2nc(NC(=O)C(=O)NNC(=O)c3ccncc3)sc2c1 | – | > 100 µM | – | – | – | > 100 µM | – | > 100 µM | – | – | – | > 100 µM | – | > 100 µM | – | – | – | > 100 µM | – | > 100 µM
CCOCc1cc(=O)c2c(OC)cc3c(c2o1)CCC(C)(C)O3 | – | – | – | > 100 µM | – | > 100 µM | – | – | – | – | – | > 100 µM | – | > 100 µM | – | > 100 µM | – | > 100 µM | – | > 100 µM
CC(C)C1N2CCCCC2[C@@H]2c3[nH]c4ccccc4c3CCN12 (some centres not stated) | – | > 100 µM | – | > 100 µM | – | > 100 µM | – | > 100 µM | – | – | – | > 100 µM | – | > 100 µM | – | > 100 µM | – | > 100 µM | – | > 100 µM
CCOC(=O)C(=O)Nc1ccccc1C(C)C | – | > 100 µM | – | > 100 µM | – | > 100 µM | – | > 100 µM | – | – | – | > 100 µM | – | > 100 µM | – | > 100 µM | – | > 100 µM | – | > 100 µM
